Earlier results, collected in patent US20130177630A1 (priority 2012, published 2013).

Tested on: fibrolamellar hepatocellular carcinoma
Settings: patient with fibrolamellar hepatocellular carcinoma

O=C(O)C(=O)CBr [3-bromopyruvate]
side effects: severe side effects | treatment outcome (survival): life-extension characteristics
